DBAASP
≈ marks a conversion by molar mass, not a printed value.

Key:
Test in all cases: ≥ marks a high value that may be exact or a test limit, other limits are often not marked, values filed in µg/mL are converted to µM
[1] = system: Candida albicans NCTC 1467
[2] = system: Enterococcus faecalis NCTC 12697
[3] = system: Escherichia coli NCTC 10418
[4] = system: Pseudomonas aeruginosa ATCC 27853
[5] = system: Staphylococcus aureus ATCC 12493
[6] = system: Staphylococcus aureus NCTC 10788
[7] = system: Candida albicans
[8] = system: Escherichia coli UB1005
[9] = system: Pseudomonas aeruginosa H103
[10] = system: Salmonella enterica serovar Typhimurium
[11] = system: Staphylococcus aureus ATCC 25923
[12] = system: Staphylococcus epidermidis
[13] = system: Escherichia coli ATCC 25922
[14] = system: Escherichia coli DH5alpha
[15] = system: Escherichia coli
[16] = system: Pseudomonas aeruginosa H188
[17] = system: Proteus mirabilis
[18] = system: Pseudomonas aeruginosa
[19] = system: Staphylococcus aureus
[20] = system: Streptococcus pyogenes
[21] = system: Acinetobacter baumannii
[22] = system: Enterococcus faecalis
[23] = system: Enterococcus faecium
[24] = system: Klebsiella pneumoniae
[25] = system: Serratia marcescens
[26] = system: Staphylococcus aureus MR
[27] = system: Stenotrophomonas maltophilia
[28] = system: Streptococcus pneumoniae

CC[C@H](C)[C@H](NC(=O)CN)C(=O)N[C@@H](CCSC)C(=O)N[C@@H](CC(=O)O)C(=O)N[C@H](C(=O)N[C@H](C(=O)N[C@@H](CCCCN)C(=O)N[C@@H](CC(N)=O)C(=O)N[C@@H](C)C(=O)N[C@@H](C)C(=O)N[C@@H](CCCCN)C(=O)N[C@@H](CC(N)=O)C(=O)N[C@@H](CC(C)C)C(=O)N[C@@H](C)C(=O)NCC(=O)N[C@@H](CCC(N)=O)C(=O)N[C@@H](CC(C)C)C(=O)N[C@@H](CC(C)C)C(=O)N[C@@H](CC(=O)O)C(=O)N[C@@H](CCCCN)C(=O)N[C@@H](CC(C)C)C(=O)N[C@@H](CCCCN)C(=O)O)C(C)C)[C@@H](C)O [GIMDTVKNAAKNLAGQLLDKLK]
MIC [1]: ≥ 512 µM
MIC [2]: ≥ 512 µM
MIC [3]: ≥ 128 µM
MIC [4]: > 512 µM
MIC [5]: ≥ 512 µM
MIC [6]: ≥ 256 µM

CC[C@H](C)[C@H](NC(=O)[C@H](Cc1c[nH]c2ccccc12)NC(=O)[C@H](CC(C)C)NC(=O)[C@H](CCCN=C(N)N)NC(=O)[C@@H](N)C(C)C)C(=O)N[C@@H](CCCN=C(N)N)C(=O)N[C@H](C(=O)N[C@@H](C)C(=O)N[C@H](C(=O)N[C@H](C(=O)N[C@@H](CCCN=C(N)N)C(=O)N[C@@H](C)C(N)=O)[C@@H](C)CC)C(C)C)C(C)C [VRLWIRVAVIRA]
MIC [7]: 34.4 µM (≈ 50 µg/mL)
MIC [8]: 4.13 µM (≈ 6 µg/mL)
MIC [9]: ≥ 34.4 µM
MIC [10]: ≥ 34.4 µM
MIC [11]: 34.4 µM (≈ 50 µg/mL)
MIC [12]: 2.07 µM (≈ 3 µg/mL)

CC[C@H](C)[C@H](NC(=O)[C@H](CCCCN)NC(=O)[C@H](CCCCN)NC(=O)[C@H](C)NC(=O)[C@@H](NC(=O)[C@H](C)NC(=O)[C@H](CC(C)C)NC(=O)[C@H](CC(C)C)NC(=O)[C@H](C)NC(=O)[C@H](CCCCN)NC(=O)[C@H](CC(C)C)NC(=O)[C@H](CC(N)=O)NC(=O)[C@H](CC(C)C)NC(=O)[C@H](CCCN=C(N)N)NC(=O)[C@H](CCCN=C(N)N)NC(=O)[C@H](CCCN=C(N)N)NC(=O)[C@H](CCC(N)=O)NC(=O)[C@H](CCCN=C(N)N)NC(=O)[C@H](CCCN=C(N)N)NC(=O)[C@H](CCCCN)NC(=O)[C@H](CCCCN)NC(=O)[C@@H](N)CCCN=C(N)N)C(C)C)C(=O)N[C@@H](CC(C)C)C(N)=O [RKKRRQRRRLNLKALLAVAKKIL]
MIC [1]: 2 µM (≈ 5.66 µg/mL)
MIC [2]: 8 µM (≈ 22.6 µg/mL)
MIC [3]: 2 µM (≈ 5.66 µg/mL)
MIC [4]: 4 µM (≈ 11.3 µg/mL)
MIC [5]: 4 µM (≈ 11.3 µg/mL)
MIC [6]: 4 µM (≈ 11.3 µg/mL)

CC[C@H](C)[C@H](NC(=O)[C@H](C)NC(=O)[C@H](CCCCN)NC(=O)[C@H](CC(C)C)NC(=O)[C@H](C)NC(=O)[C@@H](NC(=O)[C@H](Cc1cnc[nH]1)NC(=O)[C@H](CC(C)C)NC(=O)[C@H](CO)NC(=O)[C@@H](NC(=O)[C@H](CCCCN)NC(=O)[C@H](CCCCN)NC(=O)[C@H](C)NC(=O)[C@H](CO)NC(=O)[C@H](CCCCN)NC(=O)[C@H](Cc1ccccc1)NC(=O)[C@@H](NC(=O)[C@H](CCCCN)NC(=O)[C@H](CC(C)C)NC(=O)[C@H](Cc1ccccc1)NC(=O)[C@H](CO)NC(=O)[C@H](CCCCN)NC(=O)[C@H](Cc1c[nH]c2ccccc12)NC(=O)[C@H](CCCCN)NC(C)=O)[C@@H](C)O)[C@@H](C)O)[C@@H](C)O)C(=O)N[C@@H](CO)C(=O)N[C@@H](CO)C(N)=O [KWKSFLKTFKSAKKTSLHTALKAISS]
MIC [13]: 2.72 µM (≈ 8.11 µg/mL)
MIC [14]: 2.72 µM (≈ 8.11 µg/mL)
MIC [15]: 5.45 µM (≈ 16.2 µg/mL)
MIC [4]: 10.9 µM (≈ 32.4 µg/mL)
MIC [16]: 1.36 µM (≈ 4.06 µg/mL)

NC(N)=NCCC[C@H](NC(=O)[C@H](CCCN=C(N)N)NC(=O)[C@H](CCCN=C(N)N)NC(=O)[C@H](CCCN=C(N)N)NC(=O)[C@H](CCCN=C(N)N)NC(=O)[C@H](CCCN=C(N)N)NC(=O)[C@H](CCCN=C(N)N)NC(=O)[C@H](CCCN=C(N)N)NC(=O)[C@H](Cc1c[nH]c2ccccc12)NC(=O)[C@H](Cc1c[nH]c2ccccc12)NC(=O)[C@@H](N)Cc1c[nH]c2ccccc12)C(=O)O [WWWRRRRRRRR]
MIC [17]: ≥ 35 µM
MIC [18]: > 35 µM
MIC [19]: 5.48 µM (≈ 10 µg/mL)
MIC [20]: 0.479 µM (≈ 0.875 µg/mL)

CC[C@H](C)[C@H](NC(=O)[C@H](C)NC(=O)[C@H](CCCCN)NC(=O)[C@H](CC(C)C)NC(=O)[C@H](C)NC(=O)[C@@H](NC(=O)[C@H](Cc1cnc[nH]1)NC(=O)[C@H](CC(C)C)NC(=O)[C@H](CCCCN)NC(=O)[C@@H](NC(=O)[C@H](CCCCN)NC(=O)[C@H](CCCCN)NC(=O)[C@H](C)NC(=O)[C@H](CO)NC(=O)[C@H](CCCCN)NC(=O)[C@H](Cc1ccccc1)NC(=O)[C@@H](NC(=O)[C@H](CCCCN)NC(=O)[C@H](CC(C)C)NC(=O)[C@H](Cc1ccccc1)NC(=O)[C@H](CO)NC(=O)[C@H](CCCCN)NC(=O)[C@H](Cc1c[nH]c2ccccc12)NC(=O)[C@H](CCCCN)NC(C)=O)[C@@H](C)O)[C@@H](C)O)[C@@H](C)O)C(=O)N[C@@H](CO)C(=O)N[C@@H](CO)C(N)=O [KWKSFLKTFKSAKKTKLHTALKAISS]
MIC [13]: 10.7 µM (≈ 32.4 µg/mL)
MIC [14]: 5.37 µM (≈ 16.2 µg/mL)
MIC [15]: 2.69 µM (≈ 8.11 µg/mL)
MIC [4]: 10.7 µM (≈ 32.4 µg/mL)
MIC [16]: 5.37 µM (≈ 16.2 µg/mL)

CC[C@H](C)[C@H](NC(=O)[C@H](CC(C)C)NC(=O)CNC(=O)[C@H](CO)NC(=O)[C@@H](NC(=O)[C@H](CC(C)C)NC(=O)[C@@H](N)CC(N)=O)C(C)C)C(=O)N[C@@H](CCC(=O)O)C(=O)N[C@@H](C)C(=O)N[C@@H](CCCN=C(N)N)C(=O)N[C@@H](CCCCN)C(=O)N[C@@H](Cc1ccc(O)cc1)C(=O)N[C@@H](CC(C)C)C(=O)N[C@@H](CCC(=O)O)C(=O)N[C@@H](CCC(N)=O)C(=O)N[C@@H](CC(C)C)C(=O)N[C@@H](Cc1cnc[nH]1)C(=O)N[C@@H](CCCN=C(N)N)C(=O)N[C@@H](CCCCN)C(=O)N[C@@H](CC(C)C)C(=O)N[C@@H](CCCCN)C(=O)N[C@@H](CC(N)=O)C(=O)N[C@@H](CS)C(=O)N[C@@H](CCCCN)C(=O)N[C@H](C(=O)O)C(C)C [NLVSGLIEARKYLEQLHRKLKNCKV]
MIC [21]: 15.3 µM (≈ 45.3 µg/mL)
MIC [22]: 3.84 µM (≈ 11.3 µg/mL)
MIC [23]: 10.8 µM (≈ 32 µg/mL)
MIC [15]: 2.71 µM (≈ 8.02 µg/mL)
MIC [24]: 3.84 µM (≈ 11.3 µg/mL)
MIC [18]: 15.3 µM (≈ 45.3 µg/mL)
MIC [25]: 7.65 µM (≈ 22.6 µg/mL)
MIC [26]: 3.84 µM (≈ 11.3 µg/mL)
MIC [19]: 3.84 µM (≈ 11.3 µg/mL)
MIC [27]: 10.8 µM (≈ 32 µg/mL)
MIC [28]: 3.84 µM (≈ 11.3 µg/mL)

NC(N)=NCCC[C@H](NC(=O)[C@H](Cc1c[nH]c2ccccc12)NC(=O)[C@H](CCCN=C(N)N)NC(=O)[C@H](CCCN=C(N)N)NC(=O)[C@H](Cc1c[nH]c2ccccc12)NC(=O)[C@H](CCCN=C(N)N)NC(=O)[C@H](CCCN=C(N)N)NC(=O)[C@H](Cc1c[nH]c2ccccc12)NC(=O)[C@H](CCCN=C(N)N)NC(=O)[C@H](CCCN=C(N)N)NC(=O)[C@H](Cc1c[nH]c2ccccc12)NC(=O)[C@@H](N)CCCN=C(N)N)C(=O)O [RWRRWRRWRRWR]
MIC [17]: 31.8 µM (≈ 64 µg/mL)
MIC [18]: > 31.8 µM
MIC [19]: 5.96 µM (≈ 12 µg/mL)
MIC [20]: 0.497 µM (≈ 1 µg/mL)
